Data from article PMC8582824, “Targeting DDX3X Helicase Activity with BA103 Shows Promising Therapeutic Effects in Preclinical Glioblastoma Models” (Cancers, 2021).

What was measured:
[1] = tested on: U87 cells intracerebral xenograft; test: Orthotopic U87 xenograft model of GBM; type: in vivo, CD1 nude mice; details: 50 mg/kg i.p., three times per week for three weeks, observed two months
Protocol: In CD1 nude mice, 3 × 10^3 U87 cells were injecting intracerebrally using a stereotactic frame (Stoelting Europe, Dublin, Ireland). Optimization of the protocol for treatment procedures was based on previously published data performed in the same experimental in vivo model. A volume of 3 μL was inoculated by a sterile Hamilton syringe with a 26-gauge needle inserted at a depth of 3.0 mm from the skull surface. Five days after injection, animals were randomized to control and treated groups. […] For in vivo administration, BA103 was administered i.p. in a saline solution containing 10% v/v DMSO and 10% v/v TWEEN 80. Each mouse received 50 mg/kg BA103, or vehicle, three times per week.
Figure 9 Biological activity of BA103 in xenograft models of GBM. (A–D) Mice were inoculated s.c. with U87 cells, randomly distributed in two groups (CTR and BA103), and treated according to the protocol shown in panel (A). Tumor growth was monitored by measuring tumor volume (B), and at the end point, tumors were weighed, and the resulting mean values for each group are reported in the histogram (C). Recovered tumor masses were processed for analysis of DDX3X expression by immunohistochemistry, and representative images acquired at 400× magnification are shown in panel (D). (E) Survival curve from in vivo orthotopic model of GBM. […] Mice were monitored for two months after U87 cells inoculation. […]

U87 and U251 cells = test: Cell cycle analysis in GBM cells; type: cell-based; details: after 72 h
Protocol: […] At the end point, at least 5 × 10^6 cells were harvested, washed with phosphate buffer saline (PBS), and fixed overnight with 70% ethanol. Then, ethanol was removed by centrifugation, and the cells were resuspended in PBS and stained with 50 μg/mL propidium iodide (PI) at 4 °C for 30 min in the dark. Stained cells were analyzed by a Tali image-based cytometer (Life Technologies, Carlsbad, CA, USA) counting 20 fields per sample, and exported fcs raw data were elaborated by Flowing software (v. 2.5.0, by Perttu Terho, University of Turku, Finland).
To better characterize the antiproliferative effect of BA103, we performed further biological evaluation using GBM cell lines. The expression of DDX3X was evaluated in U87 and U251 cell lines by Western blot analysis in comparison with HepG2 cells, resulting in basally detectable mainly in U87 cells (Figure 6A). […] Cell cycle experiments were performed in normal conditions (CTR) and in the presence of BA103 at 1 µM and 10 µM concentrations for 48 h and 72 h. […] Thus, also according to the importance of β-catenin signaling in GBM, we analyzed whether the expression of β-catenin in U87 and U251 cells could be associated with DDX3X activity. GBM cells were treated with BA103 for 48 h, and then, β-catenin expression was evaluated by Western blot analysis and immunofluorescence analysis (Figure 7A,B, respectively). […]

[2] = tested on: panel of cancer cell lines (Du-145, PC3, HepG2, Huh-7, HN6, U87 and U231); test: Cytotoxicity screen on panel of cancer cell lines; type: cell-based; details: 72 h of treatment
Protocol: For CellTiter 96® Aqueous One Solution Cell Proliferation Assay (MTS) (Promega, Madison, WI, USA), cells were seeded at 5 × 10^3 per well in 96-well plates in quadruplicate together a control with no cells to evaluate the background. After 24 h, the culture medium was removed, and fresh medium containing increasing concentrations of chemical compounds was added to cells. The fixed final concentrations were 0.1 μM, 1 μM, 10 μM, and 100 μM. DMSO was the vehicle used for dilution of the compounds, and its final concentration on cells was less than 0.2%. Medium-only containing wells were included as controls. […] After 3 h at 37 °C in a humidified, 5% CO2 atmosphere, the absorbance at 492 nm was recorded using an EZREAD400 (Biochrom, Cambridge, United Kingdom) plate reader. The average 490 nm absorbance from the “no cell” control wells was subtracted from all other values to yield background-corrected absorbance. Dose–response curves and CC50 values have been calculated by plotting the absorbance data as a function of inhibitor concentrations and fitting the data by least-squares nonlinear regression, according to the method of Marquardt–Levenberg, with the computer program GraphPad Prism 6.0.
Cells were incubated with a scalar concentration of DDX3X inhibitors, and after 72 h of treatment, cell viability was assessed by cytotoxicity assay. […]

Q: `CCCCc1cn(-c2ccc(NC(=O)Nc3ccccc3C(F)(F)F)cc2)nn1` [BA103, 1-(4-(4-Butyl-1H-1,2,3-triazol-1-yl)phenyl)-3-(2-(trifluoromethyl)phenyl)urea] was tested. Which “mice alive at the endpoint” value [1] did it give?
A: seven out of eight

Q: What about the “cell cycle distribution” value (U87 and U251 cells) of the same compound?
A: significant accumulation of cells in the G0/G1 phase

Q: For `CCCCc1nnc(-c2ccc(NC(=O)Nc3ccccc3C(F)(F)F)cc2)[nH]1` [Compound 4, 1-(4-(5-Butyl-4H-1,2,4-triazol-3-yl)phenyl)-3-(2-(trifluoromethyl)phenyl)urea], which “growth inhibition in all the cell lines tested” value [2] is on record?
A: showed inhibition growth capability in all the cell lines tested
